One molecule from patent US20010041801A1, “Water soluble fullerenes with antiviral activity” (The Regents of the University of California, priority 1994, published 2001) can be followed below.

The structures appear in SMILES notation. Where “and” joins values, the source holds several entries; their conditions need not be identical. Identical values can stand only once. Entries after “also recorded” stand apart in the source; their conditions may differ. Like-named read-outs stand apart in the source and are kept apart here.

For one data set, the system named is HIV-1 LAI. The experiment in a line: Antiviral activity in acutely infected human PBMC, virus RT level. The format is cell-based. Particulars: Human immunodeficiency virus 1, PBMC, 144 h, read-out: Antiviral Activity (EC50) in PBMC infected with HIVLAI. The protocol: (§1) Compound 2c was evaluated for antiviral activity in cells acutely and chronically infected with human immunodeficiency virus (HIV). Reverse transcriptase (RT) levels associated with virus were determined with virus concentrated from cell culture supernatants by high-speed centrifugation to reduce the chances of drug carryover in the enzyme assay using the method described in R. F. Schinazi, et al., Antimicrob. Agents Chemother., 36:2423-2431, 1992.

Another data set has as its system HIV-2ROD. The description is as above. The format is cell-based. Particulars: Human immunodeficiency virus 2, PBMC, 144 h, read-out: Antiviral Activity (EC50) in PBMC infected with HIV-2ROD. The protocol: as §1
The test system of another data set is HIV-1III. As to the kind of experiment: Antiviral activity in chronically infected H9 cells, virus RT level. It is filed as cell-based. Particulars: Human immunodeficiency virus 1, H9, 144 h, read-out: Antiviral Activity (EC50) in H9 cells infected with HIV-1III. The protocol: as §1
A short description of data set [1]: Cytotoxicity in Vero cells. To be noted: African green monkey, Vero cells; day 3. The format is cell-based.
A further data set deals with Vero cells. As to the kind of experiment: Cytotoxicity in Vero cells. The format is cell-based. Particulars: b68: up to 100 μM.
Data set [2] in a line: Cytotoxicity in CEM cells. To be noted: human, CEM cells; cell counts on day 6. It is filed as cell-based.
For the next data set, the system named is CEM cells. As to the kind of experiment: Cytotoxicity in CEM cells. It is filed as cell-based. To be noted: b68: up to 100 μM.
The target of another data set is HIV-1 RT (Human immunodeficiency virus type 1 group M subtype B, UniProt P04585). The experiment in a line: Inhibition of recombinant p66/51 HIV-1 RT, poly(rA)n.oligo(T)12-18 template-primer. To be noted: IC50 Polymerases: HIV-1 RT, cell-free; AZT-5′-triphosphate used for AZT. The format is biochemical. The protocol:
The compound was also evaluated for its inhibitory effect on recombinant p66/51 HIV-1 RT by using poly(rA)n.oligo(T)12-18 as the template-primer as described in Schinazi, et al. (1992, supra). Compound 2c was active against this enzyme, with a median inhibitory concentration (1C50) of 4.6 μM. This value was of the same order of magnitude as that noted for the antiviral assays (TABLE 3). […] AZT-5′ triphosphate and phosphonoformate (PFA), used as positive controls, were effective and selective against HIV-1 RT.

In another data set the target is DNA polymerase α (Homo sapiens, UniProt P09884). The experiment in a line: Inhibition of cellular DNA polymerase α, cell-free. It is filed as biochemical. To be noted: AZT-5′-triphosphate used for AZT, read-out: IC50 Polymerases: DNA Polymerase α.
A further data set relates to HIV-1G910-6. As to the kind of experiment: microbe, parasite or virus in culture. It is filed as cell-based. The text has this:
The availability of AZT-resistant and -susceptible viruses allowed us to evaluate the compounds of this invention for their susceptibilities to these viruses in acutely infected PBMC in two experiments. […] In the same assay, the EC50 for TIBO [(+)-(5s)-4,5,6,7-tetrahydro-5methyl-6-(3-methyl-2-butenyl)imidazo(4,5,1-jk)(1,4)benzodiazepin-2(1 H)-thione] R82150 increased >500-fold (data not shown).

For data set [3], the system named is nevirapine (BI-RG587)-susceptible HIV-1. As to the kind of experiment: Susceptibility of nevirapine-susceptible HIV-1. The format is cell-based. Particulars: Human immunodeficiency virus 1, read-out: EC50 against nevirapine-susceptible HIV-1.
Data set [4] concerns nevirapine (BI-RG587)-resistant HIV-1. As to the kind of experiment: Susceptibility of nevirapine-resistant HIV-1. The format is cell-based. To be noted: Human immunodeficiency virus 1, read-out: EC50 against nevirapine-resistant HIV-1.
In data set [5] the target is T1, recombinant HIV-1 protease (Human immunodeficiency virus type 1 group M subtype B, UniProt P04585).
T1 construct: HIV produces a small, dimeric aspartyl protease which specifically cleaves the polyprotein precursors
As to the kind of experiment: Antiprotease assay, method similar to Ido et al. It is filed as biochemical. The protocol:
Routine protocols can be followed to determine whether a derivatized buckministerfullerene compound has virucidal properties. […] This method is similar to that described by Ido, et al., J. Biol. Chem., 266:24359-24366, 1991). Inhibition is time dependent, and preincubation with the inhibitor results in greater enzyme inhibition, indicating a slow binding process
(§2) Compound 2c also has antiprotease activity. […] The method used for the assay was similar to that described by Ido, et al., J. Biol. Chem., 266:24359-24366, 1991).

The next data set addresses pepsin (Homo sapiens, UniProt P0DJD8). As to the kind of experiment: Pepsin inhibition assay. Particulars: 0.028 μM enzyme, 0.2 M sodium citrate pH 2.0, 37° C.; read-out: IC50 against pepsin. It is filed as biochemical.
Text: as §2

Sequence of DNA polymerase α (P09884 whole entry): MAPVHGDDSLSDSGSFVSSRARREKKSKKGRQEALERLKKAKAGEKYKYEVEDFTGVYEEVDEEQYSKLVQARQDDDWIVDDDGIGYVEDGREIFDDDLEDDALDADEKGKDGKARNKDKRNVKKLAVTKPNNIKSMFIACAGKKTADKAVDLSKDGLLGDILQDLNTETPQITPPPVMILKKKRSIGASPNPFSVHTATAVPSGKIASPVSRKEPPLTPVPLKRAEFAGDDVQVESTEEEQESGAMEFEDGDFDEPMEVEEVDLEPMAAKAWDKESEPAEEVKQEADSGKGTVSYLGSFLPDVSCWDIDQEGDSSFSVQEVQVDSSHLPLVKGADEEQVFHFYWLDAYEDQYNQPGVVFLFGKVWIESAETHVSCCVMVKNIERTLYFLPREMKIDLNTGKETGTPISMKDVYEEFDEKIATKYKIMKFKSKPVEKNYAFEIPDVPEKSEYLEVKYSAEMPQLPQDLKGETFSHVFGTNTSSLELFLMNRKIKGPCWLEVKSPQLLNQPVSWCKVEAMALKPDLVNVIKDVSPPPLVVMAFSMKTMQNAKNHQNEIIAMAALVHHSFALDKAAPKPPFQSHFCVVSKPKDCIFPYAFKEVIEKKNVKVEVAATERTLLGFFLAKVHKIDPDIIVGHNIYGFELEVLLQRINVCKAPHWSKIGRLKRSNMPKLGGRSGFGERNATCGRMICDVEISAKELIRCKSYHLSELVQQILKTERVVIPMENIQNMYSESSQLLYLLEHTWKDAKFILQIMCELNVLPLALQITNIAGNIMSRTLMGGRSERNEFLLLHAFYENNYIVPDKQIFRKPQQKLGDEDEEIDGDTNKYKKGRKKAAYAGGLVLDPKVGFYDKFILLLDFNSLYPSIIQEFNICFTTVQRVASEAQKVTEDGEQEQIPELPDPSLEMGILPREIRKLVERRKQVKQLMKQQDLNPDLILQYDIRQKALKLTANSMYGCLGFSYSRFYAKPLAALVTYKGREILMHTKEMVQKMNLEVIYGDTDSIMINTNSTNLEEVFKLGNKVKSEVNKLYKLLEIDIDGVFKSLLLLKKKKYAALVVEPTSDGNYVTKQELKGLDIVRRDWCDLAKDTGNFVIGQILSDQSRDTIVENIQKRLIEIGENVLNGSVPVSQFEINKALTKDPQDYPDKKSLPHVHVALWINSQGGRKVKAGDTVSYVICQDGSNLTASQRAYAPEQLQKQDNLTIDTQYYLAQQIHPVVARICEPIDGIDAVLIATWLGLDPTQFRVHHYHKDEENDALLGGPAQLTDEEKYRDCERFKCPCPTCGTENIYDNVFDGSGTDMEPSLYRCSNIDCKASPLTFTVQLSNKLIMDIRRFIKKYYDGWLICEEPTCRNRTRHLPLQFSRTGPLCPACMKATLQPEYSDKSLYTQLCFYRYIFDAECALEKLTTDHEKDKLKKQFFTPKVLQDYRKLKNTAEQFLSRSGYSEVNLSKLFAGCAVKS
Sequence of DNA polymerase α (Q14181 whole entry partner): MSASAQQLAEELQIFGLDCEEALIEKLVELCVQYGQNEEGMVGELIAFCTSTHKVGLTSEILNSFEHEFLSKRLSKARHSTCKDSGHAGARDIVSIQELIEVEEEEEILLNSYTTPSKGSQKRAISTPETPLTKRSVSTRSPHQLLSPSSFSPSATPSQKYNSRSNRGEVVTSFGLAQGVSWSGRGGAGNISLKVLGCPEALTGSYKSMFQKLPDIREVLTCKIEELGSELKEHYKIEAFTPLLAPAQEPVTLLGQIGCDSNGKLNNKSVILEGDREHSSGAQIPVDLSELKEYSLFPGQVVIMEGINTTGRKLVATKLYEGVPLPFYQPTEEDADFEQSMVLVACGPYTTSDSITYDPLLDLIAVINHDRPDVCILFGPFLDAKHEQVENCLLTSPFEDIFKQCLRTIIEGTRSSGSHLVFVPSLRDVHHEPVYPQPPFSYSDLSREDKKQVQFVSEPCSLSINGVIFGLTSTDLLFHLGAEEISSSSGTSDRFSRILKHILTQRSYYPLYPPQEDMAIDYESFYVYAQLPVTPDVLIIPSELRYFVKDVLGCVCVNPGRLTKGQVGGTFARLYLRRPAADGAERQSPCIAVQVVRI
Sequence of DNA polymerase α (P49642 whole entry partner): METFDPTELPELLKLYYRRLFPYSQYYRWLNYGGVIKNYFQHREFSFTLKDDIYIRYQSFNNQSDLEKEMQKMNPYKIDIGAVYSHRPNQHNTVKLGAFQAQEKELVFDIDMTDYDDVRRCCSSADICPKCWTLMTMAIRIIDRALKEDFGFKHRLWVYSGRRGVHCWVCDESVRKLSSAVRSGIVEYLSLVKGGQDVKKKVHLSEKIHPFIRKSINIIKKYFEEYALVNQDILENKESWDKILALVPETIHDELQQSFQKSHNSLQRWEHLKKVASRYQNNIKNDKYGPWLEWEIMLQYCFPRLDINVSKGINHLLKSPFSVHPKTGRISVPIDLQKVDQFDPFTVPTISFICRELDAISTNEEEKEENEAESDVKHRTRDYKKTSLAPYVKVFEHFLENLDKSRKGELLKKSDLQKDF
Sequence of DNA polymerase α (P49643 whole entry partner): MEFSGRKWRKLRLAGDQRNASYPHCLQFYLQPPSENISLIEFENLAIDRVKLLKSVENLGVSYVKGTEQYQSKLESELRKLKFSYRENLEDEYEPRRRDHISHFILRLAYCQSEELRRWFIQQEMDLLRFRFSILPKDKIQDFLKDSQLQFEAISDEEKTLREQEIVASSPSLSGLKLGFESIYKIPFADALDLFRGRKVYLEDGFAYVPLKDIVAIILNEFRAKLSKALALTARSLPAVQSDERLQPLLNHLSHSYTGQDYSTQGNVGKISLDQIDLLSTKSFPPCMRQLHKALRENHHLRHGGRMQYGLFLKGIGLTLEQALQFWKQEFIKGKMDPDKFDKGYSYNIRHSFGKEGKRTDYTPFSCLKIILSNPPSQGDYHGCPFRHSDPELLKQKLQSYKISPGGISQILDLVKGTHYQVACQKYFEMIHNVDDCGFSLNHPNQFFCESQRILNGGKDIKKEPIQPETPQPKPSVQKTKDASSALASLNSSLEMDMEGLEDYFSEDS
Sequence of pepsin (P0DJD8 63-388): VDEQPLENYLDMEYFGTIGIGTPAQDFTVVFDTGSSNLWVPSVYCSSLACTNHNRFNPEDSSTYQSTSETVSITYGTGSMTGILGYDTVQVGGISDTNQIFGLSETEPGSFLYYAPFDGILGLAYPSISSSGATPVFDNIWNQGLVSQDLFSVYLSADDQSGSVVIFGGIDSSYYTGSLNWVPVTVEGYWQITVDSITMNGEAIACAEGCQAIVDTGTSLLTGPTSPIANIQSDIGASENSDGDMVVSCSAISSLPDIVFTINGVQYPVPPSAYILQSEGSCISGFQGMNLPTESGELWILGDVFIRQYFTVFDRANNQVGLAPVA

Regarding `O=C(O)CCC(=O)NCCc1ccc(C2(c3ccc(CCNC(=O)CCC(=O)O)cc3)C34c5c6c7c8c9c%10c(c%11c%12c3c3c5c5c%13c6c6c7c7c9c9c%14c%10c%10c%11c%11c%12c%12c3c3c5c5c%13c%13c6c6c7c9c7c9c%14c%10c%10c%11c%11c%12c3c3c5c5c%13c6c7c6c9c%10c%11c3c56)C824)cc1` [Compound 2c, bis(monosuccinimide) derivative of p,p′-bis(2-aminoethyl)diphenyl-C60], the EC50 with HIV-1 LAI stood at 7.3 ± 5.9 µM; in the data set on HIV-2ROD, 5.5 ± 3.8 µM; in the data set on HIV-1III it was 10.8 ± 8.2 µM; with HIV-1G910-6 (Human immunodeficiency virus 1, PBMC, read-out: EC50 against AZT-resistant HIV-1, acutely infected PBMC / lymphocytes) it was 2.8 µM; with HIV-1G910-6 (read-out: EC50 against AZT-resistant HIV-1, acutely infected PBMC / lymphocytes) it was 3 µM; in data set [3] it was 0.53 µM. For the same molecule, the EC50 in data set [4] stood at 8.7 µM. This molecule also registered an IC50 at 3 days in data set [1] of over 100 µM. Further, the “cytotoxicity in Vero cells” value in the data set with Vero cells was “No cytotoxicity; also recorded: noncytotoxic”. Besides, the IC50 at 6 days in data set [2] was over 100 µM. In addition, the “cytotoxicity in CEM cells” value in the data set on CEM cells was “No cytotoxicity; also recorded: noncytotoxic”. Moreover, the IC50 is 4.6 µM and ~5 µM on HIV-1 RT; 4.9 µM and ~5 µM on DNA polymerase α; 2 µM in data set [5]; 20 µM at pepsin.
